Test results published in ChEMBL document CHEMBL1201862, “PubChem BioAssay data set” (2004).
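Compound exposure: 48 hours, 5 concentrations, 96-well plates. GI50 = concentration required for 50% inhibition of growth.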 Activity calls are given as the source filed them. No stated cut-off is given here; in the data, active = GI50 up to about 1.1 µM and inactive = higher.

How the values were obtained:
Experiment in all cases: NCI anticancer screen, dose series, 48 h
[1] = test system: SF-295
[2] = test system: NCI-H226
[3] = test system: SF-539
[4] = test system: KM-20L2
[5] = test system: M19-MEL
[6] = test system: NCI-H460
[7] = test system: XF498
[8] = test system: SK-MEL-28
[9] = test system: U-251
[10] = test system: SNB-78
[11] = test system: DLD-1
[12] = test system: HCT-116
[13] = test system: HOP-92
[14] = test system: SR

SMILES	GI50 [1]	GI50 [2]	GI50 [3]	GI50 [4]	GI50 [5]	GI50 [6]	GI50 [7]	GI50 [8]	GI50 [9]	GI50 [10]	GI50 [11]	GI50 [12]	GI50 [13]	GI50 [14]
N#C/C(=C\c1cccc(O)c1)C(N)=O	> 100 µM (inactive)	> 100 µM (inactive)	> 100 µM (inactive)	> 100 µM (inactive)	> 100 µM (inactive)	> 100 µM (inactive)	> 100 µM (inactive)	> 100 µM (inactive)	> 100 µM (inactive)	> 100 µM (inactive)	> 100 µM (inactive)	> 100 µM (inactive)	> 100 µM (inactive)	
CC(=O)OC1COC(N2CCc3ccccc32)C(OC(C)=O)C1OC(C)=O (stereo unspecified)	> 100 µM (inactive)	> 100 µM (inactive)	> 100 µM (inactive)	> 100 µM (inactive)	> 100 µM (inactive)	> 100 µM (inactive)	> 100 µM (inactive)	> 100 µM (inactive)	> 100 µM (inactive)	> 76.4 µM (inactive)	> 100 µM (inactive)	> 100 µM (inactive)		> 100 µM (inactive)
CC(C)=CC(=O)N1CCN(C(=O)C=C(C)C)CC1	> 100 µM (inactive)		> 100 µM (inactive)	> 100 µM (inactive)	> 100 µM (inactive)	> 100 µM (inactive)	> 100 µM (inactive)	> 100 µM (inactive)	> 100 µM (inactive)	> 100 µM (inactive)	> 100 µM (inactive)	> 100 µM (inactive)	> 100 µM (inactive)	> 100 µM (inactive)
CC(=O)NNc1nc(C)c(C(/C=C/c2ccc(Cl)cc2)=N\NS(=O)(=O)c2ccc(C)cc2)s1	> 100 µM (inactive)	> 100 µM (inactive)	> 100 µM (inactive)	> 100 µM (inactive)	> 100 µM (inactive)	> 100 µM (inactive)	> 60.4 µM (inactive)	> 100 µM (inactive)	> 100 µM (inactive)	> 100 µM (inactive)	> 100 µM (inactive)	> 100 µM (inactive)	> 100 µM (inactive)	
O=C1C(Cl)C(c2ccccc2Cl)N1n1cnc2ccccc2c1=O (stereo unspecified)	29.4 µM (inactive)	8.32 µM (inactive)		> 100 µM (inactive)	> 100 µM (inactive)	> 100 µM (inactive)	67.6 µM (inactive)	> 100 µM (inactive)	48.4 µM (inactive)	> 100 µM (inactive)	61.7 µM (inactive)	36.1 µM (inactive)		5.13 µM (inactive)
CC(=O)O[C@H]1CCC2[C@@H]3CCC4=C(O)C(=O)C(C#N)C[C@]4(C)C3CC[C@@]21C (stereo partly specified)	45.9 µM (inactive)	24.9 µM (inactive)	50.8 µM (inactive)	81.3 µM (inactive)	45.2 µM (inactive)	31.6 µM (inactive)	22 µM (inactive)	46.7 µM (inactive)	47.8 µM (inactive)	47.5 µM (inactive)	25.4 µM (inactive)	29.5 µM (inactive)	3.8 µM (inactive)	
CCOC(=O)C1(C#N)C(c2ccccc2)CC(O)(c2ccc(Cl)cc2)C(C(=O)c2ccc(Cl)cc2)C1c1ccccc1 (stereo unspecified)	41 µM (inactive)	> 100 µM (inactive)		> 100 µM (inactive)	> 100 µM (inactive)	> 100 µM (inactive)	65.9 µM (inactive)	> 100 µM (inactive)	> 10 µM (inactive)	82.4 µM (inactive)	> 100 µM (inactive)	> 100 µM (inactive)		> 100 µM (inactive)
Clc1cc2ns[s+]c2cc1Cl	47.1 µM (inactive)	> 100 µM (inactive)	36.6 µM (inactive)	14.3 µM (inactive)	61.4 µM (inactive)	47.8 µM (inactive)	> 83.6 µM (inactive)	> 81.8 µM (inactive)	> 100 µM (inactive)	> 100 µM (inactive)	13.1 µM (inactive)	41 µM (inactive)	36.1 µM (inactive)	23.2 µM (inactive)
N#CC(C#N)=Cc1ccc(Oc2ccccc2)cc1	22.2 µM (inactive)	> 43.9 µM (inactive)	19.9 µM (inactive)	> 91.4 µM (inactive)	32 µM (inactive)	53.2 µM (inactive)	37.8 µM (inactive)	15.8 µM (inactive)	23.4 µM (inactive)	28.2 µM (inactive)	14.1 µM (inactive)	20.6 µM (inactive)		41.3 µM (inactive)
CN1C(=S)CSc2ccccc21		89.1 µM (inactive)	> 100 µM (inactive)	> 100 µM (inactive)	> 100 µM (inactive)	> 100 µM (inactive)	32.4 µM (inactive)	> 100 µM (inactive)	> 100 µM (inactive)	> 100 µM (inactive)	> 100 µM (inactive)	> 100 µM (inactive)	90.2 µM (inactive)	> 100 µM (inactive)
CC(CN1CCN(CC(C)Nc2ccnc3cc(Cl)ccc23)CC1)Nc1ccnc2cc(Cl)ccc12 (stereo unspecified)	19.6 µM (inactive)	28.4 µM (inactive)	16 µM (inactive)	13.4 µM (inactive)	21.8 µM (inactive)	14.7 µM (inactive)	23.3 µM (inactive)	1.6 µM (inactive)	18.5 µM (inactive)	21.1 µM (inactive)	16.9 µM (inactive)	13.4 µM (inactive)		1.83 µM (inactive)
O=[N+]([O-])c1ccc(C(Cl)C(Cl)c2ccc(C(Cl)C(Cl)c3ccc([N+](=O)[O-])cc3[N+](=O)[O-])cc2)c([N+](=O)[O-])c1 (stereo unspecified)	2.31 µM (inactive)	2.29 µM (inactive)	1.67 µM (inactive)	0.0638 µM (active)	1.33 µM (inactive)	0.957 µM (active)	0.184 µM (active)	2.3 µM (inactive)	1.26 µM (inactive)	3.44 µM (inactive)	1.78 µM (inactive)	0.931 µM (active)	1.28 µM (inactive)	2.23 µM (inactive)
COc1cc(C(=C2SCCS2)c2nccc3cc(OC)c(OC)cc23)c([N+](=O)[O-])cc1OC	56 µM (inactive)	80.4 µM (inactive)	> 100 µM (inactive)	51.1 µM (inactive)	72.9 µM (inactive)		17.9 µM (inactive)	> 100 µM (inactive)	64.7 µM (inactive)	18 µM (inactive)	> 100 µM (inactive)	80.4 µM (inactive)	8.71 µM (inactive)	21.7 µM (inactive)
O=C1C2C3CC(C4C5C=CC(C5)C34)C2C2C3CC(C12)C1C2C=CC(C2)C31 (stereo unspecified)	> 100 µM (inactive)	> 100 µM (inactive)	> 100 µM (inactive)	> 100 µM (inactive)	> 100 µM (inactive)	26.8 µM (inactive)	> 100 µM (inactive)	> 100 µM (inactive)	> 100 µM (inactive)	> 100 µM (inactive)	> 100 µM (inactive)	> 100 µM (inactive)	> 100 µM (inactive)	> 100 µM (inactive)
O=C(CC1C(=O)Nc2ccccc2[S+]1[O-])Nc1ccccc1 (stereo unspecified)	> 100 µM (inactive)	> 100 µM (inactive)	52.7 µM (inactive)	> 100 µM (inactive)	> 100 µM (inactive)	> 100 µM (inactive)	> 100 µM (inactive)	> 100 µM (inactive)	> 100 µM (inactive)	> 100 µM (inactive)	> 100 µM (inactive)	> 100 µM (inactive)	53.8 µM (inactive)	17.2 µM (inactive)
COC(=O)CCC(NC(=S)N/N=C(\C)c1nccs1)C(=O)OC (stereo unspecified)	87.7 µM (inactive)	53.7 µM (inactive)	> 100 µM (inactive)	31.8 µM (inactive)	50.5 µM (inactive)	53.3 µM (inactive)	> 100 µM (inactive)	> 100 µM (inactive)	78.2 µM (inactive)	> 100 µM (inactive)	40.6 µM (inactive)	34.4 µM (inactive)	> 100 µM (inactive)	
COC(=O)C1=Cc2c(OC)cc(OC)c(OC)c2[C@H](c2cc(OC)c(OC)cc2OC)C1C(=O)OC (stereo partly specified)	88.5 µM (inactive)	> 100 µM (inactive)	54.7 µM (inactive)	> 100 µM (inactive)	> 100 µM (inactive)	> 100 µM (inactive)	> 100 µM (inactive)	> 100 µM (inactive)	> 100 µM (inactive)	20.7 µM (inactive)	> 100 µM (inactive)	> 100 µM (inactive)	> 100 µM (inactive)	
COc1cc(CN[C@H]2CCc3cc(OC)c(OC)c(OC)c3-c3ccc(SC)c(=O)cc32)cc(OC)c1	0.0336 µM (active)	0.0318 µM (active)	0.0206 µM (active)	0.0206 µM (active)	0.0308 µM (active)	0.0361 µM (active)	0.0596 µM (active)	0.0386 µM (active)	0.0324 µM (active)	0.0538 µM (active)	0.0411 µM (active)	0.0399 µM (active)	0.187 µM (active)	< 0.01 µM (active)
CC(C)[C@H](CCl)NC(=O)c1cccc(C(=O)N[C@H](CCl)C(C)C)n1 (stereo in doubt)	> 100 µM (inactive)	> 100 µM (inactive)	> 100 µM (inactive)	> 100 µM (inactive)	> 100 µM (inactive)	> 100 µM (inactive)	> 100 µM (inactive)	> 100 µM (inactive)	> 100 µM (inactive)	> 100 µM (inactive)	> 100 µM (inactive)	> 100 µM (inactive)	> 100 µM (inactive)	> 100 µM (inactive)
